Laboratory results from PubChem BioAssay AID2060487 (Molecular Pharmacology Branch, DTP, NCI, 2025).

Tested on: 997537-175-T-J1-PDC complex spheroid viability
Assay: Anticancer human tumor 997537-175-T-J1-PDC patient-derived colon adenocarcinoma cell line growth inhibition [GQUAD]
Details: for IC50: curve of first compound; for viability, T/C: stronger effect = lower value
How it was run: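 Viability of tumor cells grown as complex spheroids with endothelial and stromal cells, exposed to drug combinations. Top concentration at or near clinical Cmax (else 10 microM), diluted in half-log increments.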

[1] = second compound 0.0316 µM, first compound 0.0316 µM
[2] = second compound 0.0316 µM, first compound 0.1 µM
[3] = second compound 0.0316 µM, first compound 0.316 µM
[4] = second compound 0.0316 µM, first compound 1 µM
[5] = second compound 0.0316 µM, first compound 3.16 µM
[6] = second compound 0.0316 µM, first compound 10 µM
[7] = second compound 0.1 µM, first compound 0.0316 µM
[8] = second compound 0.1 µM, first compound 0.1 µM
[9] = second compound 0.1 µM, first compound 0.316 µM
[10] = second compound 0.1 µM, first compound 1 µM
[11] = second compound 0.1 µM, first compound 3.16 µM
[12] = second compound 0.1 µM, first compound 10 µM
[13] = second compound 0.316 µM, first compound 0.0316 µM
[14] = second compound 0.316 µM, first compound 0.1 µM
[15] = second compound 0.316 µM, first compound 0.316 µM
[16] = second compound 0.316 µM, first compound 1 µM
[17] = second compound 0.316 µM, first compound 3.16 µM
[18] = second compound 0.316 µM, first compound 10 µM
[19] = second compound 1 µM, first compound 0.0316 µM
[20] = second compound 1 µM, first compound 0.1 µM
[21] = second compound 1 µM, first compound 0.316 µM
[22] = second compound 1 µM, first compound 1 µM
[23] = second compound 1 µM, first compound 3.16 µM
[24] = second compound 1 µM, first compound 10 µM
[25] = second compound 3.16 µM, first compound 0.0316 µM
[26] = second compound 3.16 µM, first compound 0.1 µM
[27] = second compound 3.16 µM, first compound 0.316 µM
[28] = second compound 3.16 µM, first compound 1 µM
[29] = second compound 3.16 µM, first compound 3.16 µM
[30] = second compound 3.16 µM, first compound 10 µM
[31] = second compound 10 µM, first compound 0.0316 µM
[32] = second compound 10 µM, first compound 0.1 µM
[33] = second compound 10 µM, first compound 0.316 µM
[34] = second compound 10 µM, first compound 1 µM
[35] = second compound 10 µM, first compound 3.16 µM
[36] = second compound 10 µM, first compound 10 µM
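Also: spheroids exposed to the agents for 7 days.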
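For viability, T/C in this document: 100% = DMSO vehicle control viability.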

Compound: CC1COCCN1c1cc(C2(O)CC3CCC(C2)O3)c2cnn(-c3ccn[nH]3)c2n1 (stereo not drawn) + CN(C)c1ccc(Nc2c3ccc(NC(=O)CCN4CCCC4)cc3nc3cc(NC(=O)CCN4CCCC4)ccc23)cc1
- IC50 (second compound 0.0316 µM): 786 nM
- IC50 (second compound 0.1 µM): 461 nM
- IC50 (second compound 0.316 µM): 1690 nM
- IC50 (second compound 1 µM): 211 nM
- IC50 (second compound 3.16 µM): > 10000 nM
- IC50 (second compound 10 µM): > 10000 nM
- viability, T/C [1]: 78.9%
- viability, T/C [2]: 74.6%
- viability, T/C [3]: 57.6%
- viability, T/C [4]: 46.9%
- viability, T/C [5]: 44.2%
- viability, T/C [6]: 51.1%
- viability, T/C [7]: 105%
- viability, T/C [8]: 79%
- viability, T/C [9]: 55.3%
- viability, T/C [10]: 37.1%
- viability, T/C [11]: 43.8%
- viability, T/C [12]: 48.5%
- viability, T/C [13]: 86.9%
- viability, T/C [14]: 60.2%
- viability, T/C [15]: 58.5%
- viability, T/C [16]: 42.2%
- viability, T/C [17]: 48.7%
- viability, T/C [18]: 54.2%
- viability, T/C [19]: 77.7%
- viability, T/C [20]: 52.8%
- viability, T/C [21]: 44.8%
- viability, T/C [22]: 40.7%
- viability, T/C [23]: 49%
- viability, T/C [24]: 60%
- viability, T/C [25]: 55.8%
- viability, T/C [26]: 65.7%
- viability, T/C [27]: 70.2%
- viability, T/C [28]: 45.6%
- viability, T/C [29]: 47.9%
- viability, T/C [30]: 66.5%
- viability, T/C [31]: 82.7%
- viability, T/C [32]: 61.9%
- viability, T/C [33]: 69.4%
- viability, T/C [34]: 47%
- viability, T/C [35]: 41.8%
- viability, T/C [36]: 66.5%

Compound: CC(=O)O[C@H]1C(=O)[C@@]2(C)[C@H]([C@H](OC(=O)c3ccccc3)[C@]3(O)C[C@H](OC(=O)[C@H](O)[C@@H](NC(=O)c4ccccc4)c4ccccc4)C(C)=C1C3(C)C)[C@]1(OC(C)=O)CO[C@@H]1C[C@@H]2O + Cc1cnc(CNC(=O)c2c(=O)c3ccc(N4CCCN(C)CC4)nc3n3c2sc2ccccc23)cn1
- IC50 (second compound 0.0316 µM): 51.4 nM
- IC50 (second compound 0.1 µM): 95.7 nM
- IC50 (second compound 0.316 µM): 165 nM
- IC50 (second compound 1 µM): > 10000 nM
- IC50 (second compound 3.16 µM): 5210 nM
- IC50 (second compound 10 µM): > 10000 nM
- viability, T/C [1]: 63.1%
- viability, T/C [2]: 32.2%
- viability, T/C [3]: 25.2%
- viability, T/C [4]: 32.1%
- viability, T/C [5]: 26.9%
- viability, T/C [6]: 21.2%
- viability, T/C [7]: 79.2%
- viability, T/C [8]: 48.2%
- viability, T/C [9]: 33.7%
- viability, T/C [10]: 18.4%
- viability, T/C [11]: 21.3%
- viability, T/C [12]: 32.4%
- viability, T/C [13]: 72.4%
- viability, T/C [14]: 56.4%
- viability, T/C [15]: 40.7%
- viability, T/C [16]: 47.4%
- viability, T/C [17]: 35%
- viability, T/C [18]: 43.5%
- viability, T/C [19]: 63%
- viability, T/C [20]: 72.2%
- viability, T/C [21]: 43.9%
- viability, T/C [22]: 60.5%
- viability, T/C [23]: 73.5%
- viability, T/C [24]: 47.7%
- viability, T/C [25]: 68.7%
- viability, T/C [26]: 72.8%
- viability, T/C [27]: 62.6%
- viability, T/C [28]: 66%
- viability, T/C [29]: 50.9%
- viability, T/C [30]: 45.2%
- viability, T/C [31]: 62.4%
- viability, T/C [32]: 49.4%
- viability, T/C [33]: 60%
- viability, T/C [34]: 69.7%
- viability, T/C [35]: 57%
- viability, T/C [36]: 60.2%

Compound: C#Cc1c(F)ccc2cc(O)cc(-c3ncc4c(N5CC6CCC(C5)N6)nc(OCC56CCCN5CC(F)C6)nc4c3F)c12 (stereo not drawn) + Cc1[nH]c2ccc(F)cc2c1-c1nc2c3cccnc3c3ncccc3c2[nH]1
- IC50 (second compound 0.0316 µM): 1870 nM
- IC50 (second compound 0.1 µM): 1900 nM
- IC50 (second compound 0.316 µM): 1840 nM
- IC50 (second compound 1 µM): 1290 nM
- IC50 (second compound 3.16 µM): 563 nM
- IC50 (second compound 10 µM): 460 nM
- viability, T/C [1]: 87.5%
- viability, T/C [2]: 90.5%
- viability, T/C [3]: 97%
- viability, T/C [4]: 71.1%
- viability, T/C [5]: 29.3%
- viability, T/C [6]: 35.4%
- viability, T/C [7]: 98.8%
- viability, T/C [8]: 103%
- viability, T/C [9]: 99.6%
- viability, T/C [10]: 74.2%
- viability, T/C [11]: 30.9%
- viability, T/C [12]: 26.6%
- viability, T/C [13]: 91.6%
- viability, T/C [14]: 87.7%
- viability, T/C [15]: 85.4%
- viability, T/C [16]: 63.3%
- viability, T/C [17]: 35.4%
- viability, T/C [18]: 41%
- viability, T/C [19]: 95.9%
- viability, T/C [20]: 88.3%
- viability, T/C [21]: 79.6%
- viability, T/C [22]: 56.9%
- viability, T/C [23]: 29.5%
- viability, T/C [24]: 38.2%
- viability, T/C [25]: 89.4%
- viability, T/C [26]: 73.7%
- viability, T/C [27]: 62%
- viability, T/C [28]: 41%
- viability, T/C [29]: 21.5%
- viability, T/C [30]: 15.2%
- viability, T/C [31]: 70.7%
- viability, T/C [32]: 74.1%
- viability, T/C [33]: 60.6%
- viability, T/C [34]: 26.9%
- viability, T/C [35]: 10.2%
- viability, T/C [36]: 11.8%

Compound: CC1COCCN1c1cc(C2(O)CC3CCC(C2)O3)c2cnn(-c3ccn[nH]3)c2n1 (stereo not drawn) + Cc1cnc(CNC(=O)c2c(=O)c3ccc(N4CCCN(C)CC4)nc3n3c2sc2ccccc23)cn1
- IC50 (second compound 0.0316 µM): 84.8 nM
- IC50 (second compound 0.1 µM): < 31.6 nM
- IC50 (second compound 0.316 µM): 81 nM
- IC50 (second compound 1 µM): < 31.6 nM
- IC50 (second compound 3.16 µM): > 10000 nM
- IC50 (second compound 10 µM): 3610 nM
- viability, T/C [1]: 64%
- viability, T/C [2]: 52.9%
- viability, T/C [3]: 33.3%
- viability, T/C [4]: 38.8%
- viability, T/C [5]: 42.9%
- viability, T/C [6]: 44.8%
- viability, T/C [7]: 51.1%
- viability, T/C [8]: 49%
- viability, T/C [9]: 37.5%
- viability, T/C [10]: 27.6%
- viability, T/C [11]: 41.2%
- viability, T/C [12]: 58.5%
- viability, T/C [13]: 53%
- viability, T/C [14]: 52.3%
- viability, T/C [15]: 35.7%
- viability, T/C [16]: 57.1%
- viability, T/C [17]: 43%
- viability, T/C [18]: 43.4%
- viability, T/C [19]: 47.9%
- viability, T/C [20]: 42.6%
- viability, T/C [21]: 38.4%
- viability, T/C [22]: 42.9%
- viability, T/C [23]: 62.7%
- viability, T/C [24]: 28.6%
- viability, T/C [25]: 48.6%
- viability, T/C [26]: 56.9%
- viability, T/C [27]: 62.7%
- viability, T/C [28]: 41.8%
- viability, T/C [29]: 54.2%
- viability, T/C [30]: 53%
- viability, T/C [31]: 59.5%
- viability, T/C [32]: 63.1%
- viability, T/C [33]: 55.8%
- viability, T/C [34]: 53.9%
- viability, T/C [35]: 53.1%
- viability, T/C [36]: 42.4%
